pIC50: −log10 of the molar value. Values belong to the compound of their own block, whether it stands above or below them.
What was measured:
Micrococcus luteus = test: Antibiofilm activity against Micrococcus luteus at 31.25 ug/ml incubated for 48 hrs by crystal violet staining based analysis relative to control; format: functional; conditions: dose 31.25 µg/ml
Marinobacter nauticus = test: Antibiofilm activity against Marinobacter hydrocarbonoclasticus at 31.25 ug/ml incubated for 24 hrs by crystal violet staining based analysis relative to control; format: functional; conditions: dose 31.25 µg/ml
Candida albicans = test: Antibiofilm activity against Candida albicans assessed as reduction in biofilm formation at 200 ug/ml measured after 48 hrs by crystal violet staining based analysis relative to control; format: functional; parameters: scale not given: the % may be the effect or the level left; conditions: dose 200 µg/ml
Pseudomonas aeruginosa [1] = test: Antibiofilm activity against Pseudomonas aeruginosa assessed as inhibition of biofilm formation at 100 ug/ml incubated for 24 hrs by crystal violet staining based analysis relative to control; format: functional; parameters: scale not given: the % may be the effect or the level left; conditions: dose 100 µg/ml
Staphylococcus aureus [2] = test: Antibiofilm activity against Staphylococcus aureus ATCC 6538 at 100 ug/ml incubated for 24 hrs by crystal violet staining based microplate reader method relative to control; format: functional; conditions: dose 100 µg/ml
Staphylococcus aureus [3] = test: Antibiofilm activity against Staphylococcus aureus ATCC 6538 assessed as reduction in biofilm formation at 50 ug/ml measured after 24 hrs by crystal violet staining based analysis relative to control; format: functional; parameters: scale not given: the % may be the effect or the level left; conditions: dose 50 µg/ml
[4] = tested on: Pseudooceanicola batsensis; test: Antibiofilm activity against Pseudooceanicola-batsensis at 31.25 ug/ml incubated for 48 hrs by crystal violet staining based analysis relative to control; format: functional; conditions: dose 31.25 µg/ml
[5] = tested on: Staphylococcus epidermidis; test: Antibiofilm activity against Staphylococcus epidermidis RP62A; format: functional
Staphylococcus aureus [6] = test: Antibiofilm activity against Staphylococcus aureus ATCC 25923 after 24 hrs by crystal violet staining based assay; format: functional, organism-based; conditions: ATCC 25923, 24 h
Staphylococcus aureus [7] = test: Antibiofilm activity against Staphylococcus aureus ATCC 6538 after 24 hrs by crystal violet staining based assay; format: functional, organism-based; conditions: ATCC 6538, 24 h
Pseudomonas aeruginosa [8] = test: Antibiofilm activity against Pseudomonas aeruginosa ATCC 15442 after 24 hrs by crystal violet staining based assay; format: functional, organism-based; conditions: ATCC 15442, 24 h
Streptococcus mutans [9] = test: Antibiofilm activity against Streptococcus mutans UA159 assessed as inhibition of biofilm formation at 31.0 ug/ml relative to control; format: functional; parameters: scale not given: the % may be the effect or the level left; conditions: dose 31 µg/ml
Streptococcus mutans [10] = test: Antibiofilm activity against clinical isolate Streptococcus mutans 2.M7/4 assessed as inhibition of biofilm formation at 31.0 ug/ml relative to control; format: functional; parameters: scale not given: the % may be the effect or the level left; conditions: dose 31 µg/ml
Streptococcus mutans [11] = test: Antibiofilm activity against Streptococcus mutans UA159 assessed as inhibition of biofilm formation; format: functional, organism-based
Staphylococcus aureus [12] = test: Antibiofilm activity against methicillin-resistant Staphylococcus aureus CH 10850 at 100 ug/ml relative to control; format: functional; conditions: dose 100 µg/ml
Pseudomonas aeruginosa [13] = test: Antibiofilm activity against Pseudomonas aeruginosa PA01 at 128 ug/ml relative to control; format: functional; conditions: dose 128 µg/ml
Staphylococcus aureus [14] = test: Antibiofilm activity against methicillin-resistant Staphylococcus aureus CH 10850 at 50 ug/ml relative to control; format: functional; conditions: dose 50 µg/ml
Staphylococcus aureus [15] = test: Antibiofilm activity against methicillin-resistant Staphylococcus aureus CH 10850 at 32 ug/ml relative to control; format: functional; conditions: dose 32 µg/ml
Staphylococcus aureus [16] = test: Antibiofilm activity against methicillin-resistant Staphylococcus aureus ATCC 6538 at 100 ug/ml incubated for 24 hrs by crystal violet staining based microplate reader method relative to control; format: functional; conditions: dose 100 µg/ml
[17] = Inhibition of quorum sensing system in Pseudomonas aeruginosa PA01 transfected with […]
[18] = Inhibition of quorum sensing system in Pseudomonas aeruginosa PA01 transfected with lasB-gfp

Compound: C=C(C)C(=O)CC/C(C)=C/C[C@@]12OC(C)(C)[C@H](Cl)C[C@]1(Cl)C(=O)c1c(O)cc(O)cc1C2=O
Activity (Micrococcus luteus): 87.3%
Activity (Marinobacter nauticus): 43.4%

Compound: C/C=C1/C(=O)/C(=C(/O)C(C)CCCCCC)C(=O)N1C (centres undefined) [PENICILLENOL B1]
Activity (Candida albicans): 80%

Compound: O=C(OCc1ccccc1)c1ccccc1 [BENZYL BENZOATE]
Activity (Pseudomonas aeruginosa [1]): 37.7%

Compound: CC(C)=CCC/C(C)=C/[C@@H]1CC(C)=C[C@]2(C=C(CO)[C@H]3C[C@H](O)C(C)=C[C@H]3O2)O1
Activity (Staphylococcus aureus [2]): >95%

Compound: COc1cc(-c2ccccn2)nc2cnsc12
Activity (Staphylococcus aureus [3]): >50%

Compound: C=C(C)C(O)CC/C(C)=C/C[C@@]12OC(C)(C)[C@H](Cl)C[C@]1(Cl)C(=O)c1c(O)cc(O)cc1C2=O (some centres undefined)
Activity [4]: 13.4%
Activity (Micrococcus luteus): 97%
Activity (Marinobacter nauticus): 56.9%

Compound: CCCCC/C=C/C(=O)CCCCCCCCCC(=O)O
MBIC [5]: 16 µg/mL

Compound: CC(C)=CCC/C(C)=C\C[C@@]12OC(C)(C)[C@H](Cl)C[C@]1(Cl)C(=O)c1c(cc(O)c(C)c1O)C2=O
Activity (Marinobacter nauticus): 28%

pIC50 (Staphylococcus aureus [6]): 5.77
pIC50 (Staphylococcus aureus [7]): 4.68
pIC50 (Pseudomonas aeruginosa [8]): 5.01
Compound: COCCn1cc(-c2nc(-c3c[nH]c4ncccc34)cs2)c2cc(Br)ccc21

Compound: CCCCC/C=C/C(=O)CCCCCCCC(=O)O
MBIC [5]: >128 µg/mL

Compound: Cc1c(O)cc2c(c1O)C(=O)[C@@]1(Cl)C[C@@H](Cl)C(C)(C)O[C@@]1(CC1C(C)(C)C(Cl)CC[C@@]1(C)O)C2=O (some centres undefined)
Activity (Marinobacter nauticus): 25.1%

Compound: CCCCCCCCC[C@H](CC(=O)NCCCCN)N1CC(=O)N[C@@H](Cc2ccccc2)C1=O
Activity (Streptococcus mutans [9]): 90%
Activity (Streptococcus mutans [10]): 34.8%

pIC50 (Streptococcus mutans [11]): 5.60
Compound: Cc1ccc(S(=O)(=O)n2cc3c4c2C(=O)C(NCc2ccc(Cl)cc2)=CC4=NCC3)cc1

pIC50 (Streptococcus mutans [11]): 5.70
Compound: COc1ccc(CCNC2=CC3=NCCc4cn(S(=O)(=O)c5ccc(C)cc5)c(c43)C2=O)cc1

Compound: CC(=O)OC1OC2OC(=O)[C@H](C)C34OOC([C@@]5(C)CCCC(C)(C)C5)(CC[C@@H]1C23)O4 (some centres undefined)
Activity (Staphylococcus aureus [12]): 99%

Compound: O=C1Nc2cc(Br)ccc2[C@@]1(c1c[nH]c2ccccc12)C1CNc2ccccc21 (some centres undefined)
Activity (Pseudomonas aeruginosa [13]): 41.76%

Compound: COC(=O)[C@H](C)c1c([C@@]2(C)CCCC(C)(C)C2)ccc2c1C(=O)OC2
Activity (Staphylococcus aureus [14]): 99.9%

Compound: CC(C)=CCC/C(C)=C/[C@@H]1CC(C)=C[C@]2(C=C(CO)[C@H]3C[C@@H](O)C(C)=C[C@H]3O2)O1
Activity (Staphylococcus aureus [2]): >95%

Compound: C=C(C)C(=O)CC/C(C)=C\C[C@@]12OC(C)(C)[C@H](Cl)C=C1C(=O)c1c(O)cc(O)cc1C2=O
Activity (Micrococcus luteus): 87.3%
Activity (Marinobacter nauticus): 43.4%

pIC50 (Staphylococcus aureus [6]): 5.69
pIC50 (Staphylococcus aureus [7]): 4.62
pIC50 (Pseudomonas aeruginosa [8]): 5.01
Compound: COCCn1cc(-c2nc(-c3cn(C)c4ncccc34)cs2)c2cc(Br)ccc21

Compound: NCC(c1c[nH]c2cc(Br)ccc12)c1c[nH]c2cc(Br)ccc12
Activity (Staphylococcus aureus [15]): 56.3%

Compound: CC(=O)O[C@@H]1C[C@@H]2C(CO)=C[C@]3(C=C(C)C[C@@H](/C=C(\C)CCC=C(C)C)O3)O[C@@H]2C=C1C
Activity (Staphylococcus aureus [16]): 50%

Compound: CCC(C)C(=O)NCCc1ccccc1 (centres undefined)
Activity (Pseudomonas aeruginosa [1]): 50.6%

pIC50 [17]: 5.58
pIC50 [18]: 4.51
Compound: O=C(NCCSSCCNC(=O)/C(Cc1ccc(O)c(Br)c1)=N/O)/C(Cc1ccc(O)c(Br)c1)=N/O [PSAMMAPLIN A]

pIC50 (Staphylococcus aureus [6]): 5.43
pIC50 (Staphylococcus aureus [7]): 4.84
Compound: COCCn1cc(-c2csc(-c3cn(C(=O)OC(C)(C)C)c4ccccc34)n2)c2cccnc21

pIC50 [17]: 5.06
pIC50 [18]: 5.07
Compound: O=C(NCCSSCCNC(=O)/C(Cc1cc(Br)c(O)c(-c2cc(C/C(=N\O)C(=O)NCCSSCCNC(=O)/C(Cc3ccc(O)c(Br)c3)=N/O)cc(Br)c2O)c1)=N\O)/C(Cc1ccc(O)c(Br)c1)=N\O

Compound: NCC(c1c[nH]c2cc(F)ccc12)c1c[nH]c2cc(F)ccc12
Activity (Staphylococcus aureus [15]): 61%
